ChEMBL document CHEMBL5584331, “Methyl-Transferase-Like Protein 16 (METTL16): The Intriguing Journey of a Key Epitranscriptomic Player Becoming an Emerging Biological Target” (J Med Chem, 2024)

Columns and labels:
[1] = tested on: NOMO-1; assay: Antiproliferative activity against human NOMO-1 cells assessed as reduction in cell viability incubated for 48 hrs by MTT assay; format: functional, cell-based; settings: NOMO-1, 48 h
[2] = biological target: N6-adenosine-methyltransferase catalytic subunit (Homo sapiens, UniProt Q86U44); assay: Binding affinity to METTL3 (unknown origin) assessed as dissociation constant
Sequence of N6-adenosine-methyltransferase catalytic subunit (Q86U44 whole entry): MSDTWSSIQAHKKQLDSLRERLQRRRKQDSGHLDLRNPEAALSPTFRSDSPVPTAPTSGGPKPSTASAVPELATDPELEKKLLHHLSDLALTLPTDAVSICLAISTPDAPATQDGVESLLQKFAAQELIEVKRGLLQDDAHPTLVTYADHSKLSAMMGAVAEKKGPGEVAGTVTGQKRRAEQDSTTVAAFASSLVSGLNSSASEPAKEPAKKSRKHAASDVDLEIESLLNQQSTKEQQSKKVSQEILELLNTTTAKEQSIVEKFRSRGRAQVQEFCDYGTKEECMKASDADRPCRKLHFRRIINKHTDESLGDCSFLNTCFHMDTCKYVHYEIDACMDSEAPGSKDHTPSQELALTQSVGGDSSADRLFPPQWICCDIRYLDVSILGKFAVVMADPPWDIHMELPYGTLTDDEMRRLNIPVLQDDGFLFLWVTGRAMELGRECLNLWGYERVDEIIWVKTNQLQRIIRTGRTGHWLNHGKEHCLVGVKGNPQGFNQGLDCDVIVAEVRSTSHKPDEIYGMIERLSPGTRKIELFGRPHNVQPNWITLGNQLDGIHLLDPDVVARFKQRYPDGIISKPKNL

| Kd [2] [µM] | SMILES | IC50 [1] [µM] |
| --- | --- | --- |
|  | N#Cc1ccc(Cn2ccc3c4c(N)nc(N)nc4ccc32)cc1 | 0.0206 |
| 2.84 | C/C(=N\NC(N)=S)c1ccc(F)cc1 |  |
| 3.31 | C/C(=N\N=C(/N)S)c1ccccc1 [PHENYL(METHYL)THIOSEMICARBAZONE] |  |
